Measurements as given in ChEMBL document CHEMBL1130928 (Bioorg Med Chem Lett, 1998).

Legend:
[1] = target: Human immunodeficiency virus type 1 reverse transcriptase (Human immunodeficiency virus 1, UniProt Q72547, Y181C); test: Compound was tested for inhibitory activity against HIV-1 mutant type reverse transcriptase (Y181C)
[2] = target: T1, Human immunodeficiency virus type 1 reverse transcriptase (Human immunodeficiency virus 1, UniProt Q72547); test: Compound was tested for inhibitory activity against HIV-1 wild type reverse transcriptase
[3] = target: T1, Human immunodeficiency virus type 1 reverse transcriptase; test: Compound was tested for inhibitory activity against HIV-1 mutant type reverse transcriptase ([…])
[4] = target: Human immunodeficiency virus type 1 reverse transcriptase (Human immunodeficiency virus 1, UniProt Q72547, P236L); test: Compound was tested for inhibitory activity against HIV-1 mutant type reverse transcriptase (P236L)
[5] = target: Human immunodeficiency virus type 1 reverse transcriptase (Human immunodeficiency virus 1, UniProt Q72547, K103N); test: Compound was tested for inhibitory activity against HIV-1 mutant type reverse transcriptase (K103N)

Compound	IC50 [1]	IC50 [2]	IC50 [3]	IC50 [4]	IC50 [5]
C1=Cc2cccnc2N(C2CC2)c2ncccc21	960 nM	20 nM	150 nM	10 nM	630 nM
CCN1c2ncccc2C=Cc2cccnc21	2500 nM	40 nM	230 nM	10 nM	1500 nM
